Measured values from patent publication US9526737B2, “Oxysterols for activation of hedgehog signaling, osteoinduction, antiadipogenesis, and Wnt signaling” (THE REGENTS OF THE UNIVERSITY OF CALIFORNIA, priority 2007, dated 2016).
Read-outs that look alike come from different tables or passages of the source.

Tests used:
[1] = system: TCF/Lef transcriptional activity (Cyclin D1 promoter element); assay: Cyclin D1 promoter element luciferase reporter assay (Cyclin D1-luc); type: cell-based; settings: M2 cells, 24 hours; 5 μM SS or 40 mM LiCl
Experimental: (§1) M2-10B4 cells at 70% confluence were transfected for 24 hours using FuGENE 6 Transfection Reagent (Roche Applied Science, Indianapolis, Ind.) according to manufacturer's instructions. The wild-type and mutant TCF/LEF binding site driven luciferase constructs (TBE4-luc and TBE4-luc-mut, repectively) were generous gifts from Dr. Baruch Frenkel (University of Southern California, Los Angeles, Calif.), and the Cyclin D1 promoter element-driven luciferase construct (Cyclin D1-luc) was a generous gift from Dr. Fanxin Long (Washington University, St. Louis, Mo.). Firefly luciferase values were normalized to Renilla luciferase activity and pEGFP-NI was used to evaluate transfection efficiency. Cells were then treated for 24, 48, or 72 hours with test agents before measuring luciferase activity using the Dual-Luciferase Reporter 1000 Assay System (Promega, Madison, Wis.) according to the manufacturer's instructions.
M2 cells were transfected with a luciferase reporter driven by a Cyclin D1 promoter element (Cyclin D1-luc) and analyzed for their response to 5 μM SS, 40 mM LiCl, or control vehicle after 24 h of treatment (see FIG. 3B).

[2] = system: Cyclin D1 mRNA expression; assay: Q-RT-PCR for Cyclin D1 mRNA expression; type: cell-based; settings: M2 cells
Experimental: (§2) Total RNA was extracted with the RNA isolation kit from Stratagene (La Jolla, Calif.) according to the manufacturer's instructions. RNA was DNase-treated using the DNA-free kit from Ambion, Inc. (Austin, Tex.). 3 μg of RNA was reverse-transcribed using reverse transcriptase from Stratagene (La Jolla, Calif.) to make single stranded cDNA. The cDNAs were mixed with Qi SYBR Green Supermix from Bio-Rad Laboratories (Hercules, Calif.) for quantitative RT-PCR using a Bio-Rad I-cycler IQ quantitative thermocycler. All PCR samples were prepared in triplicate or quadruplicate. Each sample was added to duplicate wells of a 96-well plate. After 40 cycles of PCR, melt curves were analyzed in order to ensure primer specificity, and the identity of all PCR products were verified by sequencing and comparing with the complete mRNA sequence obtained from PubMed's GenBank. Fold changes in gene expression were calculated using the ΔΔCt method (14). All primers were designed using the Beacon Designer software from Bio-Rad Laboratories (Hercules, Calif.). […]
M2 cells were treated with 5 μM SS, 200 ng/ml Shh, or control vehicle for 8 or 48 h. RNA was isolated and analyzed by Q-RT-PCR for Cyclin D1 expression (See FIGS. 4C and 4D).

Axin2 mRNA expression = assay: Q-RT-PCR for Axin2 mRNA expression; type: cell-based; settings: M2 cells, 8 and 48 hours; 5 μM SS, 200 ng/ml Shh, 40 mM LiCl
Experimental: as §2
M2 cells were treated with 5 μM SS, 200 ng/ml Shh, 40 mM LiCl, or control vehicle for 8 or 48 h. RNA was isolated and analyzed by Q-RT-PCR for Axing expression (See FIGS. 4A and 4B).

[3] = system: TCF/Lef transcriptional activity; assay: TCF/Lef luciferase reporter assay (TBE4-luc); type: cell-based; settings: M2 cells, 24 hours; 5 μM SS, 200 ng/ml Shh or 40 mM LiCl
Experimental: as §1
M2 cells were transfected with a luciferase reporter driven by 4 wild-type or mutant TCF/Lef DNA binding sites (TBE4-luc and TBE4-luc-mut, respectively) and analyzed for their response to 5 μM SS, 200 ng/ml Shh, 40 mM LiCl, or control vehicle after 24 h of treatment (see FIG. 3A).

[4] = system: M2-10B4 marrow stromal cells; assay: 45Ca incorporation assay (matrix mineralization); type: cell-based; settings: M2-10B4 cells treated for 14 days
Experimental: ^45Ca incorporation assay as a measure of matrix mineralization in cell monolayers was performed as previously described (45).
^45Ca incorporation assay (see Example above) was used to measure mineralization in M2 cells pre-treated with 1 μg/ml Dkk-1 or vehicle for 2 h, and then treated with control vehicle or 2.5 μM SS 12 days (See FIG. 2D).
^45Ca incorporation assay was used to measure mineralization in M2 cells pre-treated with various doses of LY, 1 μM Wm, or vehicle for 2 h, and then treated with 5 μM SS or control vehicle for 14 days (See FIG. 7C).
M2-10B4 cells were treated for 14 days with control vehicle (C) or various concentrations (μM) of oxysterols as indicated. SS refers to 20S-hydroxycholesterol+22S-hydroxycholesterol in combination. After 12 days with refeeding every 5th day, ^45Ca was added and on day 14, ^45Ca incorporation was measured (See FIG. 18).

[5] = system: bone sialoprotein (BSP) mRNA expression; assay: Q-RT-PCR for bone sialoprotein (BSP) mRNA expression; type: cell-based; settings: M2-10B4 cells
Experimental: as §2, with “(14).” for “(14). All primers were designed using the Beacon Designer software from Bio-Rad Laboratories (Hercules, Calif.).”
M2-10B4 cells were treated with control vehicle (C) or various doses (μM) of oxysterols (Oxy34 or Oxy49) as indicated. […] After 6 days of treatments, mRNA was extracted from cells and analyzed by Q-RT-PCR for BSP and GAPDH expression (See FIG. 17).
After 48 hours of treatment, RNA was isolated and analyzed for BSP expression by Q-RT-PCR as a measure of osteogenic differentiation (See FIG. 10). […]

marrow stromal cells = assay: Osteoinductive properties (osteoblast differentiation markers: ALP activity, osteocalcin mRNA, mineralization); type: cell-based; settings: induction of osteoblast differentiation markers
From the text: Oxysterols discussed in this application include those designated as Oxy22, Oxy26, Oxy27, Oxy28, Oxy39, Oxy40, Oxy41, Oxy42, Oxy48, Oxy49, Oxy20, Oxy34, Oxy36, Oxy38, Oxy50, Oxy51, Oxy52, and Oxy53. At least the following oxysterols have been identified as osteoinductive: Oxy22, Oxy26, Oxy27, Oxy28, Oxy39, Oxy40, Oxy41, Oxy42, Oxy48, Oxy49, Oxy50, Oxy51, Oxy52, and Oxy53. The osteoinductive properties of these oxysterols is shown by their ability to induce the expression of various osteoblast differentiation markers, including alkaline phosphatase activity, osteocalcin mRNA expression, and mineralization. These oxysterols are activators of the hedgehog signaling pathway.

[6] = system: M2-10B4 marrow stromal cells; assay: Alkaline phosphatase (ALP) activity assay; settings: M210B4, 72 h
Experimental: The protocol is a modification of alkaline phosphatase assay kit from Sigma. Cells are cultured in 24-well tissue culture plates. After treatments with test agents, cells are rinsed twice with PBS and scraped into 200 ml of lysis buffer (0.2% NP-40 in 1 mM MgCl2) and sonicated for 10 seconds. Next, 1 ml of reaction mixture is added to each well. Reaction mixture is 221 alkaline buffer (Sigma): stock substrate solution (1:1). Stock substrate solution is prepared by dissolving 40 mg of Sigma 104 phosphatase substrate in 10 ml of ddH2O. After addition of reaction mixture to lysed cells, incubation is performed for 30 minutes at 37 C. […] The reaction is stopped by the addition of 12 ml of 1N NaOH to each well, and absorbance is determined at 405 nm. Alkaline phosphatase activity is calculated using p-nitrophenol as a standard, according to Sigma kit's instructions. Results are normalized to total protein in each well determined using the Bio-Rad protein assay solution (Bio-Rad Laboratories).
M2-10B4 marrow stromal cells were treated with oxysterols at various doses for 3 days after which they were collected and analyzed by calorimetric assay for alkaline phosphatase activity (a marker of osteoblastic differentiation) (Table 1); the alkaline phosphatase assay described above was used.
M2-10B4 marrow stromal cells were treated with oxysterols at various doses for 3 days after which they were collected and analyzed by colorimetric assay for alkaline phosphatase activity (a marker of osteoblastic differentiation) (Table 2); the alkaline phosphatase assay described above was used.
M2-10B4 bone marrow stromal cells were treated in culture with control vehicle (C) or various oxysterol (Oxy) molecules as indicated at either 1.25 (1) or 2.5 (2) μM concentrations. After 3 days of treatment, alkaline phosphatase activity as a measure of early osteogenic differentiation of cells was measured in whole cell lysates (See FIG. 9 and Table 3); the alkaline phosphatase assay described above was used.

[7] = read-out: Fold Induction in alkaline phosphatase activity compared to control untreated cells
[8] = read-out: Fold Induction in alkaline phosphatase activity over control untreated cells

Q: Which “Cyclin D1 promoter element TCF/Lef reporter activity” value [1] does the source give for `[Cl-].[Li+]` [LiCl, lithium chloride] here?
A: activated

Q: What about the “Cyclin D1 mRNA expression” value ([2]; 8 hours) of the same compound?
A: did not induce

Q: And the “Cyclin D1 mRNA expression” value ([2]; 48 hours)?
A: inhibited its baseline expression

Q: And the “Axin2 mRNA expression” value (Axin2 mRNA expression)?
A: induced its expression at both time points

Q: And the “TCF/Lef reporter activity compared to untreated control cells” value [3]?
A: significantly induced

Q: `C=C(C)CCC[C@](C)(O)[C@H]1CC[C@H]2[C@@H]3C[C@H](O)[C@H]4C[C@@H](O)CC[C@]4(C)[C@H]3CC[C@@]21C` [Oxy49, (3S,5S,6S,8R,9S,10R,13S,14S,17S)-17-((S)-2-Hydroxy-6-methylhept-6-en-2-yl)-10,13-dimethylhexadecahydro-1H-cyclopenta[a]phenanthrene-3,6-diol] was tested. Which “Mineralization (45Ca incorporation)” value [4] did it give?
A: increased mineralization

Q: What about the BSP expression [5] of the same compound?
A: induce BSP expression

Q: And the Osteoinductive property (marrow stromal cells)?
A: osteoinductive

Q: What about the fold induction at 2.5 µM [6, 7] of the same compound?
A: 170

Q: What about the fold induction at 5 µM [6, 7] of the same compound?
A: 204

Q: And the fold induction at 1.25 µM [6, 8]?
A: 46

Q: And the fold induction at 2.5 µM [6, 8]?
A: 68
